The compounds below were run against human HPK1 (MAP4K1) (Homo sapiens (Human), UniProt Q92918) (assay: HPK1 IC50 Assay (TR-FRET biochemical kinase assay, STK S1 peptide substrate)). Details: recombinant human HPK1 kinase domain 0.15 nM, 10 μM ATP, 1 μM STK S1 peptide; geometric mean.
How it was run: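 Pre-activated recombinant kinase domain (insect cells; 0.15 nM) pre-incubated with compounds for 15 min, then 10 μM ATP and 1 μM STK S1 peptide added for 3 h at 25 °C in BES pH 7.0. Phosphorylation read by HTRF (665/620 nm). IC50 from four-parameter fits normalized to staurosporine/DMSO controls, geometric mean of repeats.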

Chain of human HPK1 (MAP4K1) (Q92918 17-274): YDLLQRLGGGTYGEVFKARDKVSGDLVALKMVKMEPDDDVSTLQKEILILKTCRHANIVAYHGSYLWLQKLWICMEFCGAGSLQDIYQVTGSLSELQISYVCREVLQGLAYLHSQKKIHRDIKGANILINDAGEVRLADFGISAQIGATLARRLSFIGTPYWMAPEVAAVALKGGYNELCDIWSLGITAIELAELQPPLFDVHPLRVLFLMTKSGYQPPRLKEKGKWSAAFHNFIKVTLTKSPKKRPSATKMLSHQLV

SMILES	IC50
CC(C)n1cnc2cc(-c3ccc4c(c3)N([C@H]3C[C@@H](N5CCC(C)(C)C5)C3)C(=O)C43CCN(C(=O)c4cnco4)CC3)nc(Nc3ccncc3F)c21 [Example 158]	0.4 nM
CC(C)n1cnc2cc(-c3ccc4c(c3)N([C@H]3C[C@@H](N5CCC(C)(C)C5)C3)C(=O)C43CCN(C(=O)C4(CO)CC4)CC3)nc(Nc3ccncc3F)c21 [Example 135]	0.4 nM
CC(C)n1cnc2cc(-c3ccc4c(c3)N([C@H]3C[C@@H](N5C6COCC5C6)C3)C(=O)C4(C)C)nc(Nc3ccncc3F)c21 [Example 190]	2.1 nM
CO[C@H]1C[C@@H](C(=O)N2CCC3(CC2)C(=O)N([C@H]2C[C@@H](N4CCC(C)(C)C4)C2)c2cc(-c4cc5ncn(C(C)C)c5c(Nc5ccncc5F)n4)ccc23)C1 [Example 156]	0.2 nM
CC(C)[C@H](O)C(=O)N1CCC2(CC1)C(=O)N([C@H]1C[C@@H](N3CCC(C)(C)C3)C1)c1cc(-c3cc4ncn(C(C)C)c4c(Nc4ccncc4F)n3)ccc12 [Example 119]	0.2 nM
CCn1cnc2cc(-c3ccc4c(c3)N([C@H]3C[C@@H](N5CCCCC5)C3)C(=O)C43CCN(C(=O)C(C)(C)C)CC3)nc(Nc3ccncc3F)c21 [Example 169]	0.8 nM
Cc1cc(Nc2nc(-c3ccc4c(c3)N([C@H]3C[C@@H](N5CCC(C)(C)C5)C3)C(=O)C43CCN(C(=O)C(C)(C)CO)CC3)cc3ncn(C(C)C)c23)c(F)cn1 [Example 131]	0.6 nM
CC(C)n1cnc2cc(-c3ccc4c(c3)N([C@H]3C[C@@H](N5CCCCC5)C3)C(=O)C43CCN(C(=O)C4(CO)CC4)CC3)nc(Nc3ccncc3F)c21 [Example 134]	0.3 nM
CC[C@H](O)C(=O)N1CCC2(CC1)C(=O)N([C@H]1C[C@@H](N3CCCCC3)C1)c1cc(-c3cc4ncn(C(C)C)c4c(Nc4ccncc4F)n3)ccc12 [Example 115]	0.4 nM
CC(C)n1cnc2cc(-c3ccc4c(c3)N([C@H]3C[C@@H](N5CCCC6(CC6)C5)C3)C(=O)C43CCN(C(=O)C(C)(C)CO)CC3)nc(Nc3ccncc3F)c21 [Example 122]	0.2 nM
CCC1(C(=O)N2CCC3(CC2)C(=O)N([C@H]2C[C@@H](N4CCCCC4)C2)c2cc(-c4cc5ncn(C(C)C)c5c(Nc5ccncc5F)n4)ccc23)COC1 [Example 138]	0.2 nM
CC(C)n1cnc2cc(-c3ccc4c(c3)N([C@H]3C[C@@H](N5CCCCC5)C3)C(=O)C43CCN(C(=O)C4(C)COC4)CC3)nc(Nc3ccncc3F)c21 [Example 147]	0.4 nM
CC(C)n1cnc2cc(-c3ccc4c(c3)N([C@H]3C[C@@H](N5CCCCC5)C3)C(=O)C43CCN(C(=O)[C@@H](C)O)CC3)nc(Nc3ccnc(F)c3F)c21 [Example 102]	0.1 nM
CC(=O)N1CCC2(CC1)C(=O)N([C@H]1C[C@@H](N3CC4CCC3CC4)C1)c1cc(-c3cc4ncn(C(C)C)c4c(Nc4ccncc4F)n3)ccc12 [Example 193]	0.3 nM
CC(C)n1cnc2cc(-c3ccc4c(c3)N([C@H]3C[C@@H](N5CCC(C)(C)C5)C3)C(=O)C43CCN(C(=O)c4ccon4)CC3)nc(Nc3ccncc3F)c21 [Example 155]	0.3 nM

Same assay, conditions: recombinant human HPK1 kinase domain 0.15 nM, 10 μM ATP, 1 μM STK S1 peptide; geometric mean of multiple experiments

SMILES	IC50
CC(C)n1cnc2cc(-c3ccc4c(c3)N([C@H]3C[C@@H](N5CCCCC5)C3)C(=O)C43CCN(C(=O)C4(C)COC4)CC3)nc(Nc3ccc(F)nc3F)c21 [Example 96]	0.2 nM
CC(=O)N1CCC2(CC1)C(=O)N([C@H]1C[C@@H](N3CCCCC3)C1)c1cc(-c3cc4ncn(C(C)C)c4c(Nc4cc(C(=O)NC(C)C)ncc4F)n3)ccc12 [Example 74]	6.6 nM
CNC(=O)c1cc(Nc2nc(-c3ccc4c(c3)N([C@H]3C[C@@H](N5CCCCC5)C3)C(=O)C4(C)C)cc3ncn(C(C)C)c23)c(F)cn1 [Example 88]	8.2 nM
CCn1cnc2cc(-c3ccc4c(c3)N([C@H]3C[C@@H](N5CCC(C)(C)C5)C3)C(=O)C43CCN(C4COC4)CC3)nc(Nc3ccncc3F)c21 [Example 87]	0.7 nM
CC(C)n1cnc2cc(-c3ccc4c(c3)N([C@H]3C[C@@H](NCC(C)(C)F)C3)C(=O)C4(C)C)nc(Nc3ccncc3F)c21 [Example 64]	1.3 nM
CC(C)n1cnc2cc(-c3ccc4c(c3)N([C@H]3C[C@@H](N5CCC(C)(C)C5)C3)C(=O)C43CCN(C(=O)C4CCO4)CC3)nc(Nc3ccncc3F)c21 (mixture of isomers) [Example 78, 1-((1s,3s)-3-(3,3-dimethylpyrrolidin-1-yl)cyclobutyl)-6-(4-((3-fluoropyridin-4-yl)amino)-3-isopropyl-3H-imidazo[4,5-c]pyridin-6-yl)-1′-(oxetane-2-carbonyl)spiro[indoline-3,4′-piperidin]-2-one]	0.7 nM
CC(C)n1cnc2cc(-c3cnc4c(c3)N([C@H]3C[C@@H](N5CCCCC5)C3)C(=O)C4(C)C)nc(Nc3ccnc(F)c3F)c21 [Example 95]	2.5 nM
CCn1cnc2cc(-c3ccc4c(c3)N([C@H]3C[C@@H](N5CCCCC5)C3)C(=O)C43CCN(C(=O)[C@@H](C)O)CC3)nc(Nc3ccc(F)nc3F)c21 [Example 73]	0.2 nM
CC(C)n1cnc2cc(-c3ccc4c(c3)N([C@H]3C[C@@H](N5CCC(C(F)F)C5)C3)C(=O)C43CCN(C4COC4)CC3)nc(Nc3ccncc3F)c21 (some centres unmarked) [Example 48]	1.5 nM
CC(C)n1cnc2cc(-c3ccc4c(c3)N([C@H]3C[C@@H](N5CCCCC5)C3)C(=O)C43CCN(C(=O)[C@@H](C)O)CC3)nc(Nc3ccc(F)nc3F)c21 [Example 68]	0.1 nM
CC(C)n1cnc2cc(-c3ccc4c(c3)N([C@H]3C[C@@H](N5CC[C@H](F)C5)C3)C(=O)C43CCN(C4COC4)CC3)nc(Nc3ccncc3F)c21 [Example 46]	1.1 nM
CC(C)n1cnc2cc(-c3ccc4c(c3)N([C@H]3C[C@@H](N5CCCC(C)(C)C5)C3)C(=O)C4(C)C)nc(Nc3ccc(=O)n(C)c3)c21 [Example 81]	0.2 nM
CC(C)n1cnc2cc(-c3ccc4c(c3)N([C@H]3C[C@@H](N5CC(C)(C)C[C@H]5CO)C3)C(=O)C43CCN(C4COC4)CC3)nc(Nc3ccncc3F)c21 [Example 38]	1.4 nM
CC(C)n1cnc2cc(-c3ccc4c(c3)N([C@H]3C[C@@H](N5CCC(F)CC5)C3)C(=O)C43CCN(C4COC4)CC3)nc(Nc3ccncc3F)c21 [Example 43]	1.1 nM
CC(C)n1cnc2cc(-c3ccc4c(c3)N([C@H]3C[C@@H](N5CCCC(C)(F)C5)C3)C(=O)C43CCN(C4COC4)CC3)nc(Nc3ccncc3F)c21 (some centres unmarked) [Example 80]	0.4 nM
CC(C)n1cnc2cc(-c3ccc4c(c3)N([C@H]3C[C@@H](N5CCC(C)(C)C5)C3)C(=O)C43CCN(C(=O)[C@H]4CCO4)CC3)nc(Nc3ccncc3F)c21 (single isomer, unassigned) [Example 78B, 1-((1s,3s)-3-(3,3-dimethylpyrrolidin-1-yl)cyclobutyl)-6-(4-((3-fluoropyridin-4-yl)amino)-3-isopropyl-3H-imidazo[4,5-c]pyridin-6-yl)-1′-(oxetane-2-carbonyl)spiro[indoline-3,4′-piperidin]-2-one]	0.3 nM
CC(=O)N1CCC2(CC1)C(=O)N([C@H]1C[C@@H](N3CCCCC3)C1)c1cc(-c3cc4ncn(C(C)C)c4c(Nc4ncc(F)cc4F)n3)ccc12 [Example 69]	5.6 nM
CC(C)n1cnc2cc(-c3ccc4c(c3)N([C@H]3C[C@@H](N5CCC[C@@H](C)C5)C3)C(=O)C43CCN(C4COC4)CC3)nc(Nc3ccncc3F)c21 [Example 41]	0.6 nM

The remaining lines, values ahead:

IC50	SMILES
0.2 nM	CC(C)n1cnc2cc(-c3ccc4c(c3)N([C@H]3C[C@@H](N5CCC(C)(C)C5)C3)C(=O)C43CCN(C(=O)[C@@H]4OCC[C@@H]4C)CC3)nc(Nc3ccncc3F)c21 [Example 19A, 1-((1s,3S)-3-(3,3-dimethylpyrrolidin-1-yl)cyclobutyl)-6-(4-((3-fluoropyridin-4-yl)amino)-3-isopropyl-3H-imidazo[4,5-c]pyridin-6-yl)-1′-((2R,3S)-3-methyltetrahydrofuran-2-carbonyl)spiro[indoline-3,4′-piperidin]-2-one]
0.4 nM	CC(C)n1cnc2cc(-c3ccc4c(c3)N([C@H]3C[C@@H](N5CCC(C)(C)C5)C3)C(=O)C43CCN(C(=O)C(C)(C)O)CC3)nc(Nc3ccncc3F)c21 [Example 4]
0.4 nM	CC(=O)N1CCC2(CC1)C(=O)N([C@H]1C[C@@H](N3CCC(C)(C)C3)C1)c1cc(-c3cc4ncn(C(C)C)c4c(Nc4ccncc4F)n3)ccc12 [Example 29]
0.2 nM	CC(C)n1cnc2cc(-c3ccc4c(c3)N([C@H]3C[C@@H](N5CCCC6(CC6)C5)C3)C(=O)C43CCN(C(=O)C4(C)COC4)CC3)nc(Nc3ccncc3F)c21 [Example 35]
0.5 nM	CC(=O)N1CCC2(CC1)C(=O)N([C@H]1C[C@@H](N3CCCCC3)C1)c1cc(-c3cc4ncn(C(C)C)c4c(Nc4ccncc4F)n3)ccc12 [Example 67, 1′-acetyl-6-(4-((3-fluoropyridin-4-yl)amino)-3-isopropyl-3H-imidazo[4,5-c]pyridin-6-yl)-1-((1s,3s)-3-(piperidin-1-yl)cyclobutyl)spiro[indoline-3,4′-piperidin]-2-one]
0.3 nM	CC(C)n1cnc2cc(-c3ccc4c(c3)N([C@H]3C[C@@H](N5CCC(C)(C)C5)C3)C(=O)C43CCN(C(=O)C4(C)CCOC4)CC3)nc(Nc3ccncc3F)c21 (some centres unmarked) [Example 18]
0.05 nM	CC(C)n1cnc2cc(-c3ccc4c(c3)N([C@H]3C[C@@H](N5CCC(C)(C)C5)C3)C(=O)C43CCN(C(=O)[C@@H]4CC[C@H](C)O4)CC3)nc(Nc3ccncc3F)c21 [Example 20B, 1-((1s,3R)-3-(3,3-dimethylpyrrolidin-1-yl)cyclobutyl)-6-(4-((3-fluoropyridin-4-yl)amino)-3-isopropyl-3H-imidazo[4,5-c]pyridin-6-yl)-1′-((2S,5 S)-5-methyltetrahydrofuran-2-carbonyl)spiro[indoline-3,4′-piperidin]-2-one]
0.2 nM	CC(C)n1cnc2cc(-c3ccc4c(c3)N([C@H]3C[C@@H](N5CCC(C)(C)C5)C3)C(=O)C43CCN(C(=O)[C@H]4CCCO4)CC3)nc(Nc3ccncc3F)c21 [Example 14]
